A short description of data set [1]: in vitro penetration of levonorgestrel across hairless mouse skin, modified Franz diffusion cell. The text has this: In the examples, the steady state rate of penetration, or flux, is indicated by the symbol: Jss. The cumulative amount of drug penetrated is indicated by the Symbol: Q. The lag period to reach steady state is indicated by the symbol: tL. The standard deviation for statistical purposes is abbreviated: S.D. The standard error of the mean for statistical purposes is abbreviated S.E.M. Abbreviation "g" denotes grams, "mg" denotes milligram, "mcg" denotes micrograms and "ng" denotes nanograms.
Initially, twelve amino acids were selected for evaluation of their effect on the rate of penetration of levonorgestrel through hairless mouse skin. Differing amino acids were selected according to the structure of their side chain so that at least one amino acid from each of the seven different chemical groups was studied. […] These were incorporated into transdermal drug formulations and the corresponding rates of penetration were determined. […] A total of 36 out of a possible 48 formulations were evaluated. The effect of amino acid, pH and ionic species on the rate of penetration was then analyzed.
The amino acids were dissolved in distilled water and the pH was adjusted by addition of either 0.1 or 1.ON HCl or 1.0N NaOH. Ethanol was then added to give a final ethanol concentration of 40% w/w. The pH was monitored and recorded. […] 1%(w/w) levonorgestrel was suspended in this solvent system. Suspensions were applied to hairless mouse skin as described above.
The penetration of drug across hairless mouse skin was studied in vitro using a modified Franz diffusion cell apparatus as described by Y. W. Chien, P. R. Keshary, Y. C. Huany and P. P. Sarpotdar in "Comparative Controlled Skin Permeation of Nitroglycerin from Marketed Transdermal Delivery Systems," J. Pharmaceutical Sciences, Vol. 72, No. 8 August 1983, pp. 968-970. […] Samples were withdrawn at predetermined times up to a total of 10 hours.
Subsequently, rates of penetration were also determined (in hairless mouse skin a described above) for Norleucine, Norvaline and α-Amino-n-Butyric Acid.

The conditions of data set [2]: pH values at which amino acids were tested; cited from earlier work.
[3] abbreviates: Table II, average of all data at all pH values, amino acid 0.2 M.

Like-named read-outs stand apart in the source and are kept apart here.

With `C[C@H](N)C(=O)O` [Alanine, L-Alanine], the “Jss, steady state rate of penetration of levonorgestrel” value (“Jss, steady state rate” for short) in data set [1] and in data set [1] (pH 4.8) was 0.8553 mcg/cm^2 /hr throughout.
`N=C(N)NCCC[C@H](N)C(=O)O` [Arginine, L-(+)-Arginine]: the “pHISO (isoelectric pH)” value in data set [2] is on record as 10.8. The “Jss, steady state rate” value in data set [1] (setting [3]) is listed as 0.8864 mcg/cm^2 /hr; in data set [1] (Table VI, at pK2', pH 10.8), 1.012 mcg/cm^2 hr; in data set [1] (pH 2.9), 0.688 mcg/cm^2 /hr; in data set [1] (pH 4.2), 0.9590 mcg/cm^2 /hr; in data set [1] (pH 10.8) it was 1.012 mcg/cm^2 /hr.
`N[C@@H](CC(=O)O)C(=O)O` [Aspartic Acid, L-(+)-Aspartic Acid]: the “Jss, steady state rate” value in data set [1] (setting [3]) and in data set [1] (pH 4.4) was 1.1538 mcg/cm^2 /hr throughout.
Take `N[C@@H](CS)C(=O)O` [Cysteine, L-(+)-Cysteine]: the “Jss, steady state rate” value in data set [1] was 1.6160 mcg/cm^2 /hr; in data set [1] (pH 2.3), 2.154 mcg/cm^2 /hr; in data set [1] (pH 4.9) it was 1.1635 mcg/cm^2 /hr. In data set [1] (Tables III-VI), the “effect on penetration at specific pHs, in words” value (shortened to “effect on penetration”) is “greatest affect on penetration”. In data set [1] (average of all pH values, P=0.05), the “overall rate of penetration of levonorgestrel, ranking in words” value is listed as “provided the highest rates”. For the same compound, the results for the “rate of penetration of levonorgestrel, ranking in words” value in data set [1] (pH 2.3 to 3.2 (pK1')) and in data set [1] (pK2' (pH 8.6-10.8)) were “significantly increased rate” and “fastest rate of penetration”, respectively.
With `N[C@@H](CCC(=O)O)C(=O)O` [Glutamic Acid, L-Glutamic Acid], the “pHISO (isoelectric pH)” value in data set [2] is reported as 3.8. The “Jss, steady state rate” value in data set [1] (Table II, average of all data at all pH values, amino acid 0.03 M) is on record as 0.8277 mcg/cm^2 /hr; in data set [1] (Table VI, at pK2', pH 9.9), 0.450 mcg/cm^2 hr; in data set [1] (pH 3.8) it was 0.842 mcg/cm^2 /hr; in data set [1] (pH 4.6), 1.1910 mcg/cm^2 /hr; in data set [1] (pH 9.9), 0.450 mcg/cm^2 /hr. Besides, the “rate of penetration of levonorgestrel (in words)” value in data set [1] (pH between 4.0 and 5.0) was “relatively high rates of penetration”.
On to `NCC(=O)O` [Glycine], for which the “effect of hundred-fold concentration difference on rate of penetration” value in data set [1] (Glycine buffer, previous experimentation) was “no significant difference in the rate of penetration”. Further, the “Jss, steady state rate” value in data set [1] (Table VI, at pK2', pH 9.6) was 1.003 mcg/cm^2 hr; in data set [1] (pH 2.4), 0.557 mcg/cm^2 /hr; in data set [1] (pH 4.7), 1.2790 mcg/cm^2 /hr; in data set [1] (pH 6.0) it was 0.532 mcg/cm^2 /hr; in data set [1] (pH 9.6) it was 1.003 mcg/cm^2 /hr.
Turning to `CC[C@H](C)[C@H](N)C(=O)O` [Isoleucine, L-(+)-Isoleucine], in data set [1], the “Jss, steady state rate” value came to 1.5542 mcg/cm^2 /hr; the “effect on penetration” value is recorded as “greatest affect on penetration”; the “overall rate of penetration of levonorgestrel, ranking in words” value is “provided the highest rates”; the “rate of penetration of levonorgestrel (in words)” value is “relatively high rates of penetration”. Further, the “Jss, steady state rate” value in data set [1] (pH 2.4) turned out to be 0.921 mcg/cm^2 /hr. The “Jss, steady state rate” value in data set [1] (pH 4.5) is listed as 1.3328 mcg/cm^2 /hr. In addition, the “Jss, steady state rate” value in data set [1] (pH 6) is listed as 3.167 mcg/cm^2 /hr.
Consider `C#C[C@]1(O)CC[C@H]2[C@@H]3CCC4=CC(=O)CC[C@@H]4[C@H]3CC[C@@]21CC` [Levonorgestrel, reference compound], for which, in data set [1] (amino acid present in the formulation), the “effect of pH on rate of penetration” value was “not affected significantly by changing pH”. Further, the “Average rate of penetration of levonorgestrel in the presence of amino acids” value in data set [1] (pH 2.5) was found to be 1.0980 mcg/cm^2 /hr; in data set [1] (pH 4.5) it was 1.1279 mcg/cm^2 /hr; in data set [1] (pH 6.1) it was 1.2798 mcg/cm^2 /hr; in data set [1] (pH 9.6), 1.0598 mcg/cm^2 /hr.
For the compound `O=C(O)[C@@H]1CCCN1` [Proline, L-(-)-Proline], the “Jss, steady state rate” value in data set [1] is listed as 0.8462 mcg/cm^2 /hr; in data set [1] (pH 2.3) it was 0.765 mcg/cm^2 /hr; in data set [1] (pH 4.6), 1.0863 mcg/cm^2 /hr; in data set [1] (pH 6.7), 0.688 mcg/cm^2 /hr.
For the compound `N[C@@H](CO)C(=O)O` [Serine, L-(-)-Serine], the entries for the “Jss, steady state rate” value in data set [1], in data set [1] (pH 4.7) and in data set [1] (pH 5.7) were 0.8628 mcg/cm^2 /hr, 1.1287 mcg/cm^2 /hr and 0.896 mcg/cm^2 /hr, respectively.
`N[C@@H](Cc1c[nH]c2ccccc12)C(=O)O` [Tryptophan, L-(-)-Tryptophan]: the “Jss, steady state rate” value came out at 0.6033 mcg/cm^2 /hr in data set [1], 0.641 mcg/cm^2 /hr in data set [1] (pH 3.2), 0.6020 mcg/cm^2 /hr in data set [1] (pH 4.7) and 0.567 mcg/cm^2 /hr in data set [1] (pH 6.5).
Regarding `CC(C)[C@H](N)C(=O)O` [Valine, L-(+)-Valine], the “Jss, steady state rate” value in data set [1] was determined as 1.8006 mcg/cm^2 /hr; in data set [1] (pH 2.4), 1.492 mcg/cm^2 /hr; in data set [1] (pH 4.7), 1.7903 mcg/cm^2 /hr; in data set [1] (pH 5.9), 2.276 mcg/cm^2 /hr. Further, the “effect on penetration” value in data set [1] is “greatest affect on penetration”.

(Values after patent US4732892A, “L-α-amino acids as transdermal penetration enhancers” (priority 1985, dated 1988).)
